Measurements from paper PMC7887271, “Fast acting allosteric phosphofructokinase inhibitors block trypanosome glycolysis and cure acute African trypanosomiasis in mice” (Nature Communications, 2021).
Values joined by “and” are separate entries in the source; they are usually repeats but may differ in a detail not shown here. Equal entries are not always repeated.

How the values were obtained:
[1] = tested on: T. b. brucei GVR35-Luc2; experiment: T. b. brucei GVR35-Luc2 time-to-kill assay (luciferin); assay type: cell-based; details: for Luminescence (medium-subtracted), Average: average of replicates; for % Cell viability, individual replicates / % Inhibition, individual replicates / Luminescence (medium-subtracted), individual replicates: replicate wells; for Luminescence, Average / Luminescence, individual replicates: Time to kill assay for GVR35 cells
Description: Enzyme activity was measured using an aldolase/TIM linked assay at 25 °C. […] Experiments were carried out in duplicate. Data are presented as mean values ± standard deviation. […] Source data are provided as a Source Data File. b Kill time of CTCB-405 compared with existing HAT drugs in the clinic. […] Over 99% of trypanosomes were killed in under 30 min compared with much slower killing rates for the other drugs. The points on the graph for CTCB-405 were determined from two independent biological replicate experiments with each time point measured twice (using duplicate technical replicates). The ESD for each point on the graph is between 0.7 and 1.4%. For drugs in clinical use each point on the graph is the average of two technical replicates from one experiment (with a maximum difference of 7.8% for any of the points). Source data are provided as a Source Data File.
As predicted from the biology of the BSF that relies wholly on glycolysis for ATP production, inhibition of the pathway results in a very fast TTK. Two experimental methods were used to measure ATP levels as a real-time indicator of viability. For Tb427 parasites, a Cell Titre Glo kit was used and for the TbGVR35 bioluminescent strain, killing was assessed by adding luciferin which requires ATP to produce a luminescent signal (Supplementary Methods 4.3 and 4.4). […] The BSF of T. brucei cannot produce ATP by oxidative phosphorylation and is solely dependent on flux through the glycolytic pathway. The clear correlation between inhibitor dose and reduction in ATP production, as observed in the TTK assays strongly supports the proposed mode of action of the CTCB compounds is by blocking glycolysis. It is a long-established experimental observation that withdrawal of glucose nutrient leads to rapid loss of motility and cell death. It has recently been shown that the BSF of T. brucei can proliferate on high levels of glycerol; however, we have shown that addition of glycerol to the medium has little effect on parasite killing by the CTCB compounds (Supplementary Table 3).
The killing of T. b. brucei GVR35-Luc2 was assessed by adding D-luciferin to live cells resulting in the production of light in the presence of ATP and luciferase activity. Compounds of interest were serially diluted from 16 µM to 0.5 µM in Modified HMI-9 medium and added into sterile white, flat bottom 96-well plate (Greiner Inc.). 32,000 trypanosomes were added to each well. The plates were incubated at 37 °C and 5% CO2. At the end of each incubation, 200 µg/ml of D-luciferin was added to each well and incubated for 10 min. Luminescence was measured using a BMG plate reader and percentage cell viability versus incubation time was determined.

[2] = tested on: T. b. rhodesiense; experiment: EC50 against in vitro cultured T. b. rhodesiense (STMI); assay type: cell-based; details: Trypanosoma brucei
[3] = Experimentally determined pKa and logP (Pharmorphix); assay type: physicochemical
Description: pKa and […] values for selected CTCB compounds were determined experimentally by the company Pharmorphix (www.matthey.com) and calculated pKas were determined using ChemAxon.software (https://chemaxon.com).

[4] = tested on: MDCK-MDR1; details: dog
[5] = 0.5 h, mean, suramin, fexinidazole, SCYX-7158 11 µM, CTCB-405 4 µM
[6] = 1 h, mean, suramin, fexinidazole, SCYX-7158 11 µM, CTCB-405 4 µM
[7] = 2 h, mean, suramin, fexinidazole, SCYX-7158 11 µM, CTCB-405 4 µM
[8] = 4 h, mean, suramin, fexinidazole, SCYX-7158 11 µM, CTCB-405 4 µM
[9] = 6 h, mean, suramin, fexinidazole, SCYX-7158 11 µM, CTCB-405 4 µM
[10] = 8 h, mean, suramin, fexinidazole, SCYX-7158 11 µM, CTCB-405 4 µM
[11] = GVR35 TTK, 24 h incubation, average
[12] = GVR35 TTK, 24 h incubation, from average
[13] = GVR35 TTK, 24 h sheet, summary line marked "4"

CN(C)CCn1ccc2c(ccn2Cc2ccc(Cl)c(Cl)c2)c1=O [CTCB-405, 1-[(3,4-Dichlorophenyl)methyl]-5-[2-(dimethylamino)ethyl] pyrrolo[3,2-c]pyridin-4-one]
trypanosomes killed in under 30 min ([1]; 4 µM, GVR35 bioluminescent strain): Over 99%
% Cell viability, single replicates ([1]; 0.5 h): 0.291% and 2.73%
% Inhibition, single replicates ([1]; 0.5 h): 100% and 97%
% Cell viability ([1]; 0.5 h, average): 1.49% and 1.51%
% Inhibition [1, 5]: 99%
% Cell viability, single replicates ([1]; 1 h): -0.108% and -1%
% Inhibition, single replicates ([1]; 1 h): 100% and 101%
% Inhibition [1, 6]: 101%
% Cell viability, single replicates ([1]; 2 h): -0.773% and 0.055%
% Inhibition, single replicates ([1]; 2 h): 101% and 100%
% Cell viability ([1]; 2 h, average): -0.345% and -0.359%
% Inhibition [1, 7]: 100%
% Cell viability, single replicates ([1]; 4 h): -0.741% and -0.843%
% Inhibition, single replicates ([1]; 4 h): 101%
% Cell viability ([1]; 4 h, average): -0.791% and 0% and -0.792%
% Inhibition [1, 8]: 101%
% Cell viability, single replicates ([1]; 6 h): -0.633% and -0.494%
% Inhibition, single replicates ([1]; 6 h): 101% and 100%
% Cell viability ([1]; 6 h, average): -0.563% and -0.564%
% Inhibition [1, 9]: 101%
% Cell viability, single replicates ([1]; 8 h): -0.333% and -0.376%
% Inhibition, single replicates ([1]; 8 h): 100%
% Cell viability ([1]; 8 h, average): -0.354%
% Inhibition [1, 10]: 100%
% Cell viability, Average [1, 11]: -0.0941%
Luminescence (medium-subtracted), Average ([1]; GVR35 TTK, 24 h incubation): -1
% Inhibition [1, 12]: 100%
% Cell viability, individual replicates ([1]; GVR35 TTK, 24 h incubation): -0.0906% and -0.0976%
% Inhibition, individual replicates ([1]; GVR35 TTK, 24 h incubation): 100%
Luminescence (medium-subtracted), individual replicates ([1]; GVR35 TTK, 24 h incubation): -8.5 and 6.5
% Cell viability [1, 13]: -0.0937%
Luminescence, Average ([1]; 0.5 hour incubation): 184
Luminescence, individual replicates ([1]; 0.5 hour incubation): 76 and 293
Luminescence, Average ([1]; 1hour incubation): 41
Luminescence, individual replicates ([1]; 1hour incubation): 96 and -14
Luminescence, Average ([1]; 2hour incubation): 40
Luminescence, individual replicates ([1]; 2hour incubation): -17 and 96
Luminescence, Average ([1]; 4hour incubation): -33
Luminescence, individual replicates ([1]; 4hour incubation): -26 and -40
Luminescence, Average ([1]; 6hour incubation): -24
Luminescence, individual replicates ([1]; 6hour incubation): -47 and -1
Luminescence, Average ([1]; 8hour incubation): 13
Luminescence, individual replicates ([1]; 8hour incubation): 20 and 6
Luminescence, Average ([1]; 24hour incubation): -1
Luminescence, individual replicates ([1]; 24hour incubation): -8.5 and 6.5
EC50 [2]: 250 nM
logP ([3]; read-out: Measured logP): 3.29
pKa ([3]; read-out: Measured pKa): 8.09
MDCK-MDR1 A-B [4]: 17.6
MDCK-MDR1 B-A [4]: 17.2

CNCCn1ccc2c(ccn2Cc2ccc(Cl)c(Cl)c2)c1=O [CTCB-435]
% Cell viability, single replicates ([1]; 0.5 h): 0.549% and -0.0671%
% Inhibition, single replicates ([1]; 0.5 h): 99% and 100%
% Cell viability ([1]; 0.5 h, average): 0.247% and 0.241%
% Inhibition [1, 5]: 100%
% Cell viability, single replicates ([1]; 1 h): -0.883% and -0.918%
% Inhibition, single replicates ([1]; 1 h): 101%
% Inhibition [1, 6]: 101%
% Cell viability, single replicates ([1]; 2 h): -0.287% and -0.261%
% Inhibition, single replicates ([1]; 2 h): 100%
% Cell viability ([1]; 2 h, average): -0.274%
% Inhibition [1, 7]: 100%
% Cell viability, single replicates ([1]; 4 h): -0.785% and -0.904%
% Inhibition, single replicates ([1]; 4 h): 101%
% Cell viability ([1]; 4 h, average): -0.843% and 0% and -0.844%
% Inhibition [1, 8]: 101%
% Cell viability, single replicates ([1]; 6 h): -0.726% and -0.643%
% Inhibition, single replicates ([1]; 6 h): 101%
% Cell viability ([1]; 6 h, average): -0.684%
% Inhibition [1, 9]: 101%
% Cell viability, single replicates ([1]; 8 h): -0.436% and -0.367%
% Inhibition, single replicates ([1]; 8 h): 100%
% Cell viability ([1]; 8 h, average): -0.401%
% Inhibition [1, 10]: 100%
% Cell viability, Average [1, 11]: -0.136%
Luminescence (medium-subtracted), Average ([1]; GVR35 TTK, 24 h incubation): -47.5
% Inhibition [1, 12]: 100%
% Cell viability, individual replicates ([1]; GVR35 TTK, 24 h incubation): -0.139% and -0.134%
% Inhibition, individual replicates ([1]; GVR35 TTK, 24 h incubation): 100%
Luminescence (medium-subtracted), individual replicates ([1]; GVR35 TTK, 24 h incubation): -66.5 and -28.5
% Cell viability [1, 13]: -0.137%
Luminescence, Average ([1]; 0.5 hour incubation): 71
Luminescence, individual replicates ([1]; 0.5 hour incubation): 100 and 43
Luminescence, Average ([1]; 1hour incubation): 2
Luminescence, individual replicates ([1]; 1hour incubation): 3 and 1
Luminescence, Average ([1]; 2hour incubation): 50
Luminescence, individual replicates ([1]; 2hour incubation): 49 and 50
Luminescence, Average ([1]; 4hour incubation): -42
Luminescence, individual replicates ([1]; 4hour incubation): -34 and -51
Luminescence, Average ([1]; 6hour incubation): -65
Luminescence, individual replicates ([1]; 6hour incubation): -78 and -51
Luminescence, Average ([1]; 8hour incubation): -1.5
Luminescence, individual replicates ([1]; 8hour incubation): -12 and 9
Luminescence, Average ([1]; 24hour incubation): -48
Luminescence, individual replicates ([1]; 24hour incubation): -67 and -29

CN(C)CCn1ccc2c(ccn2Cc2ccc(Cl)c(Br)c2)c1=O [CTCB-470, 1-[(3-Bromo-4-chlorophenyl)methyl]-5-[2-(dimethylamino)ethyl] pyrrolo[3,2-c]pyridin-4-one]
EC50 [2]: 280 nM
MDCK-MDR1 A-B [4]: 34.9
MDCK-MDR1 B-A [4]: 28.3
